Test results: patent US6380218B1, “Nicotinamide derivatives” (Pfizer Inc, priority 1997, dated 2002)
Structures can show the parent of a compound that is named as a salt.

Q: For CC(C)(O)c1ccc(CNC(=O)c2cccnc2Oc2ccc(F)cc2)cc1, which melting point is on record?
A: 106 to 108 °C

Q: For O=C(NCc1ccccc1Cl)c1cccnc1Oc1cccnc1 (as salt: HCl) [Example 31, N-(2-Chloro-benzyl)-2-(pyridin-3-yloxy)-nicotinamide], which melting point is on record?
A: 174 to 176 °C

Q: Which melting point does the source give for C[C@H](NC(=O)c1cccnc1Oc1cccnc1)c1cccs1 (as salt: HCl) [Example 46, (S)(+)-2-(Pyridin-3-yloxy)-N-(1-thiophen-2-yl-ethyl)-nicotinamide] here?
A: 196 to 198 °C

Q: With C[C@@H](NC(=O)c1cccnc1Oc1cccnc1)c1cccs1 (as salt: HCl) [Example 47, (R)(−)-2-(Pyridin-3-yloxy)-N-(1-thiophen-2-yl-ethyl)-nicotinamide] as the molecule, how does the melting point read?
A: 197 to 199 °C

Q: With CN(C)c1cccc(Oc2ncccc2C(=O)NCc2ccccc2Cl)c1 (as salt: HCl) [Example 118, N-(2-Chloro-benzyl)-2-(3-dimethylamino-phenoxy)-nicotinamide] as the molecule, how does the melting point read?
A: 85 to 87 °C

Q: With CC(NC(=O)c1cccnc1Oc1ccc(F)cc1)c1ccc(Cl)s1 (single isomer, unassigned; (+)) [Example 141, (+)-N-[1-(5-Chloro-thiophen-2-yl)-ethyl]-2-(4-fluoro-phenoxy)-nicotinamide] as the molecule, how does the melting point read?
A: 78 to 80 °C

Q: With CC(O)c1ccc(CNC(=O)c2cccnc2Oc2cccnc2)s1 (single isomer, unassigned; (+)) [Example 205, (+)-N-[5-(1-Hydroxy-ethyl)-thiophen-2-ylmethyl]-2-(pyridin-3-yloxy)-nicotinamide] as the molecule, how does the melting point read?
A: 88 to 90 °C

Q: Which melting point does the source give for CC(O)C1CCC(CNC(=O)c2cccnc2Oc2ccc(F)c(C#N)c2)CC1 (single isomer, unassigned; (-)) [Example 320, (−)-2-(3-Cyano-4-fluoro-phenoxy)-N-[4-(1-hydroxy-ethyl)-cyclohexylmethyl]-nicotinamide] here?
A: 134 to 135 °C

Q: Which melting point does the source give for O=C(NCc1cccs1)c1cccnc1Oc1ccc(F)cc1 [Example 1, 2-(4-Fluoro-phenoxy)-N-thiophen-2-ylmethyl-nicotinamide] here?
A: 89 to 91 °C

Q: With O=C(NCc1ccco1)c1cccnc1Oc1ccc(F)cc1 [Example 2, 2-(4-Fluoro-phenoxy)-N-furan-2-ylmethyl-nicotinamide] as the molecule, how does the melting point read?
A: 71 to 73 °C

Q: Which melting point does the source give for O=C(NCc1c(F)cccc1Cl)c1cccnc1Oc1ccc(F)cc1 [Example 5, N-(2-Chloro-6-fluoro-benzyl)-2-(4-fluoro-phenoxy)-nicotinamide] here?
A: 115 to 118 °C

Q: With C[C@H](NC(=O)c1cccnc1Oc1ccc(F)cc1)c1cccs1 [Example 6, (S)(−)2-(4-Fluoro-phenoxy)-N-(1-thiophen-2-yl-ethyl)-nicotinamide] as the molecule, how does the melting point read?
A: 59 to 61 °C

Q: Which melting point does the source give for C[C@@H](NC(=O)c1cccnc1Oc1ccc(F)cc1)c1cccs1 [Example 7, (R)(+)2-(4-Fluoro-phenoxy)-N-(1-thiophen-2-yl-ethyl)-nicotinamide] here?
A: 60 to 62 °C

Q: Which melting point does the source give for CC(NC(=O)c1cccnc1Oc1ccc(F)cc1)c1ccc(Cl)s1 (centres unmarked) [Example 8, N-[1-(5-Chloro-thiophen-2-yl)-ethyl]-2-(4-fluoro-phenoxy)-nicotinamide] here?
A: 87 to 89 °C

Q: With O=C(NCc1ccccc1Cl)c1cccnc1Oc1ccc(F)cc1 [Example 9, N-(2-Chloro-benzyl)-2-(4-fluoro-phenoxy)-nicotinamide] as the molecule, how does the melting point read?
A: 118 to 120 °C

Q: Which melting point does the source give for O=C(NCc1ccccc1Cl)c1cccnc1Oc1ccc(F)cc1F [Example 10, N-(2-Chloro-benzyl)-2-(2,4-difluoro-phenoxy)-nicotinamide] here?
A: 122 to 124 °C

Q: Which melting point does the source give for O=C(NCc1ccccc1Cl)c1cccnc1Oc1cccc(F)c1 [Example 11, N-(2-Chloro-benzyl)-2-(3-fluoro-phenoxy)-nicotinamide] here?
A: 115 to 117 °C

Q: For O=C(NCc1ccccc1Cl)c1cccnc1Oc1cccnc1 [Example 12, N-(2-Chloro-benzyl)-2-(pyridin-3-yloxy)-nicotinamide], which melting point is on record?
A: 123 to 125 °C

Q: For Cc1ccc(CNC(=O)c2cccnc2Oc2cccnc2)cc1 [Example 13, N-(4-Methyl-benzyl)-2-(pyridin-3-yloxy)-nicotinamide], which melting point is on record?
A: 91 to 93 °C

Q: With CC(NC(=O)c1cccnc1Oc1cccnc1)c1ccc(Cl)s1 (centres unmarked) [Example 14, N-[1-(5-Chloro-thiophen-2-yl)-ethyl]-2-(pyridin-3-yloxy)-nicotinamide] as the molecule, how does the melting point read?
A: 74 to 76 °C

Q: With O=C(NCc1ccco1)c1cccnc1Oc1cccnc1 [Example 15, N-Furan-2-ylmethyl-2-(pyridin-3-yloxy)-nicotinamide] as the molecule, how does the melting point read?
A: 84 to 86 °C

Q: For O=C(NCc1ccc(Cl)s1)c1cccnc1Oc1cccnc1 [Example 16, N-(5-Chloro-thiophen-2-ylmethyl)-2-(pyridin-3-yloxy)-nicotinamide], which melting point is on record?
A: 110 to 112 °C

Q: With Cc1ccc(C(C)NC(=O)c2cccnc2Oc2cccnc2)s1 (centres unmarked) [Example 17, N-[1-(5-Methyl-thiophen-2-yl)-ethyl]-2-(pyridin-3-yloxy)-nicotinamide] as the molecule, how does the melting point read?
A: 162 to 164 °C

Q: With Cc1ccc(CNC(=O)c2cccnc2Oc2cccnc2)s1 [Example 18, N-(5-Methyl-thiophen-2-ylmethyl)-2-(pyridin-3-yloxy)-nicotinamide] as the molecule, how does the melting point read?
A: 111 to 113 °C

Q: With Cc1ccc(CNC(=O)c2cccnc2Oc2cccnc2)o1 [Example 19, N-(5-Methyl-furan-2-ylmethyl)-2-(pyridin-3-yloxy)-nicotinamide] as the molecule, how does the melting point read?
A: 65 to 67 °C

Q: Which melting point does the source give for Cc1ccsc1CNC(=O)c1cccnc1Oc1cccnc1 [Example 20, N-(3-Methyl-thiophen-2-ylmethyl)-2-(pyridin-3-yloxy)-nicotinamide] here?
A: 89 to 91 °C

Q: Which melting point does the source give for O=C(NCc1cc(Cl)cs1)c1cccnc1Oc1cccnc1 [Example 21, N-(4-Chloro-thiophen-2-ylmethyl)-2-(pyridin-3-yloxy)-nicotinamide] here?
A: 118 to 120 °C

Q: For O=C(NCc1cc2ccccc2s1)c1cccnc1Oc1cccnc1 [Example 22, N-Benzo[b]thiophen-2-ylmethyl-2-(pyridin-3-yloxy)-nicotinamide], which melting point is on record?
A: 93 to 95 °C

Q: Which melting point does the source give for O=C(NCc1ccc(Cl)o1)c1cccnc1Oc1cccnc1 [Example 23, N-(5-Chloro-furan-2-ylmethyl)-2-(pyridin-3-yloxy)-nicotinamide] here?
A: 80 to 82 °C

Q: With O=C(NCc1nccs1)c1cccnc1Oc1cccnc1 [Example 24, 2-(Pyridin-3-yloxy)-N-thiazol-2-ylmethyl-nicotinamide] as the molecule, how does the melting point read?
A: 94 to 96 °C

Q: Which melting point does the source give for O=C(NCc1ccc(OCC(F)(F)F)cc1)c1cccnc1Oc1cccnc1 [Example 25, 2-(Pyridin-3-yloxy)-N-[4-(2,2,2-trifluoro-ethoxy)-benzyl]-nicotinamide] here?
A: 98 to 100 °C

Q: Which melting point does the source give for O=C(NCc1ccccc1F)c1cccnc1Oc1cccnc1 [Example 26, N-(2-Fluoro-benzyl)-2-(pyridin-3-yloxy)-nicotinamide] here?
A: 90 to 92 °C

Q: Which melting point does the source give for O=C(NCc1ccc(OC(F)F)cc1)c1cccnc1Oc1cccnc1 [Example 27, N-(4-Difluoromethoxy-benzyl)-2-(pyridin-3-yloxy)-nicotinamide] here?
A: 91 to 93 °C

Q: For O=C(NCc1ccc(F)cc1)c1cccnc1Oc1cccnc1 [Example 28, N-(4-Fluoro-benzyl]-2-(pyridin-3-yloxy)-nicotinamide], which melting point is on record?
A: 129 to 131 °C

Q: Which melting point does the source give for COc1ccc(CNC(=O)c2cccnc2Oc2cccnc2)cc1 [Example 29, N-(4-Methoxy-benzyl)-2-(pyridin-3-yloxy)-nicotinamide] here?
A: 62 to 64 °C

Q: Which melting point does the source give for O=C(NCc1ccc(C(F)(F)F)s1)c1cccnc1Oc1cccnc1 [Example 30, 2-(Pyridin-3-yloxy)-N-(5-trifluoromethyl-thiophen-2-ylmethyl)-nicotinamide] here?
A: 122 to 124 °C

Q: With O=C(NCc1ccc(F)s1)c1cccnc1Oc1cccnc1 [Example 32, N-(5-Fluoro-thiophen-2-ylmethyl)-2-(pyridin-3-yloxy)-nicotinamide] as the molecule, how does the melting point read?
A: 99 to 101 °C

Q: For O=C1Cc2cc(CNC(=O)c3cccnc3Oc3cccnc3)ccc2N1 [Example 33, N-(2-Oxo-2,3-dihydro-1H-indol-5-ylmethyl)-2-(pyridin-3-yloxy)-nicotinamide], which melting point is on record?
A: 109 to 111 °C

Q: For CC(C)(C)c1cc(CNC(=O)c2cccnc2Oc2cccnc2)cc(C(C)(C)C)c1O [Example 34, N-(3,5-Di-tert-butyl-4-hydroxy-benzyl)-2-(pyridin-3-yloxy)-nicotinamide], which melting point is on record?
A: 42 to 44 °C

Q: For CC(C)(O)c1ccc(CNC(=O)c2cccnc2Oc2cccnc2)cc1 [Example 36, N-[4-(1-Hydroxy-1-methyl-ethyl)-benzyl]-2-(pyridin-3-yloxy)-nicotinamide], which melting point is on record?
A: 79 to 81 °C

Q: For COC(=O)c1ccc(CNC(=O)c2cccnc2Oc2cccnc2)cc1 [Example 37, 4-({[2-(Pyridin-3-yloxy)-pyridine-3-carbonyl]-amino}-methyl)-benzoicacid methyl ester], which melting point is on record?
A: 125 to 127 °C

Q: Which melting point does the source give for CC(C)(O)c1ccc(CNC(=O)c2cccnc2Oc2cccnc2)cc1Cl [Example 38, N-[3-Chloro-4-(1-hydroxy-1-methyl-ethyl)-benzyl]-2-(pyridin-3-yloxy)-nicotinamide] here?
A: 139 to 141 °C

Q: With O=C(NCc1ccc2c(c1)OCCC2O)c1cccnc1Oc1cccnc1 (centres unmarked) [Example 41, N-(4-Hydroxy-chroman-7-ylmethyl)-2-(pyridin-3-yloxy)-nicotinamide] as the molecule, how does the melting point read?
A: 134 to 136 °C

Q: Which melting point does the source give for O=C(NCc1ccc(C2(O)CCC2)cc1)c1cccnc1Oc1cccnc1 [Example 42, N-[4-(1-Hydroxy-cyclobutyl)-benzyl]-2-(pyridin-3-yloxy)-nicotinamide] here?
A: 116 to 118 °C

Q: With CC(C)(O)c1cc(Cl)c(CNC(=O)c2cccnc2Oc2cccnc2)s1 [Example 44, N-[3-Chloro-5-(1-hydroxy-1-methyl-ethyl)-thiophen-2-ylmethyl]-2-(pyridin-3-yloxy)-nicotinamide] as the molecule, how does the melting point read?
A: 74 to 76 °C

Q: Which melting point does the source give for CC(NC(=O)c1cccnc1Oc1cccnc1)c1cccs1 (centres unmarked) [Example 45, 2-(Pyridin-3-yloxy)-N-(1-thiophen-2yl-ethyl)-nicotinamide] here?
A: 90 to 92 °C

Q: Which melting point does the source give for Cc1ccc(CNC(=O)c2cccnc2Oc2cncc(Cl)c2)cc1 [Example 48, 2-(5-Chloro-pyridin-3-yloxy)-N-(4-methyl-benzyl)-nicotinamide] here?
A: 119 to 121 °C
